From US20150219624A1, “METHODS FOR IDENTIFYING ANTI-CANCER COMPOUNDS” (MEMORIAL SLOAN KETTERING CANCER CENTER, priority 2013, published 2015)

Columns and labels:
Assay type in all cases: cell-based
[1] = tested on: neuroblastoma cell lines SKNAS, CLBGA, IMR32 and N206; experiment: Silvestrol IC50 in neuroblastoma cell lines SKNAS, CLBGA, IMR32 and N206
human T-ALL lines = experiment: Activity in established human T-ALL cell lines; conditions: PTEN wild type vs PTEN mutant
BE(2)C = experiment: Silvestrol in neuroblastoma cell lines in vitro: BE(2)C; conditions: Homo sapiens; BE(2)C cells, N-MYC
Method: (§1) The effect of silvestrol on several neuroblastoma cell lines was evaluated.

murine T-ALL cells = experiment: Silvestrol effect on murine T-ALL cells with engineered genetic lesions; conditions: cells expressing Akt, mutant IL7R, eIF4E or shRNA against Pten
renal carcinoma lines = experiment: Silvestrol sensitivity of renal carcinoma lines; conditions: ACHN, A498, CAKI-1, CAKI-2 to 786-O
IMR32 = experiment: Silvestrol in neuroblastoma cell lines in vitro: IMR32; conditions: Homo sapiens, IMR-32; IMR32 cells, N_MYC
Method: as §1

BE(1)N = experiment: Silvestrol in neuroblastoma cell lines in vitro: BE(1)N; conditions: BE(1)N cells, N-MYC
Method: as §1

For COC(=O)[C@H]1[C@@H](O)[C@@]2(O)c3c(OC)cc(O[C@@H]4O[C@@H]([C@H](O)CO)CO[C@H]4OC)cc3O[C@@]2(c2ccc(OC)cc2)[C@@H]1c1ccccc1 [silvestrol], the IC50 [1] was 2 to 20 nM, the “activity against PTEN wild type and PTEN mutant cell lines and primary T-ALL cells” value (human T-ALL lines) was “equal activity” and the IC50 (BE(2)C) was 47.8 nM. For the same compound, the “sensitivity of murine T-ALL cells” value (murine T-ALL cells) was “no significant difference in sensitivity”, the sensitivity (renal carcinoma lines) was “range of sensitivities” and the IC50 (IMR32) was 2.86 nM. It also gave an IC50 (BE(1)N) of 2.52 nM.
